Reference: patent US20160022675A1, “PROCESSES FOR PREPARING TETRAHYDROISOQUINOLINES” (BRISTOL-MYERS SQUIBB COMPANY, priority 2013, published 2016)

How the values were obtained:
[1] = test system: mouse tail suspension model of depression; assay: Mouse tail suspension model of depression; format: in vivo; conditions: PO
Description: (§1) The effects of Compound 1-(4S) in the mouse tail suspension model of depression and target site occupancy were assessed to compare occupancies associated with the behavioral response. The mouse tail suspension model is known the art. […] The lowest effective dose of Compound 1-(4S), 0.3 mg/kg, PO, decreased immobility by 77% relative to vehicle-treated controls. […] Administration of Compound 1-(4S) led to dose-dependent occupancy of SERT, NET, and DAT binding sites in the brain. At the lowest behaviorally-effective dose (0.3 mg/kg), occupancies were 86±1% of SERT, 76±3% of NET, and 28±3% of DAT. At 1 mg/kg, occupancies were 89±1%, 82±1% and 54±3% at SERT, NET, and DAT, respectively. Pharmacokinetics and pharmacodynamics (PD) in mouse, rat, and dog focused primarily on DAT occupancy since SERT and NET occupancies were saturated by drug for most, if not all, of the times studied. DAT occupancy increased as a function of increasing plasma exposure. The DAT occupancy to total plasma level could be fitted using a single binding site model and plasma level ED50 (the dose producing 50% effect) values could be calculated.

[2] = target: T1, SERT (Mus musculus, UniProt Q60857); assay: SERT occupancy in the brain, mouse; format: in vivo
T1 construct: from tissue; host or cells: mouse brain
T1 sequence (Q60857 whole entry): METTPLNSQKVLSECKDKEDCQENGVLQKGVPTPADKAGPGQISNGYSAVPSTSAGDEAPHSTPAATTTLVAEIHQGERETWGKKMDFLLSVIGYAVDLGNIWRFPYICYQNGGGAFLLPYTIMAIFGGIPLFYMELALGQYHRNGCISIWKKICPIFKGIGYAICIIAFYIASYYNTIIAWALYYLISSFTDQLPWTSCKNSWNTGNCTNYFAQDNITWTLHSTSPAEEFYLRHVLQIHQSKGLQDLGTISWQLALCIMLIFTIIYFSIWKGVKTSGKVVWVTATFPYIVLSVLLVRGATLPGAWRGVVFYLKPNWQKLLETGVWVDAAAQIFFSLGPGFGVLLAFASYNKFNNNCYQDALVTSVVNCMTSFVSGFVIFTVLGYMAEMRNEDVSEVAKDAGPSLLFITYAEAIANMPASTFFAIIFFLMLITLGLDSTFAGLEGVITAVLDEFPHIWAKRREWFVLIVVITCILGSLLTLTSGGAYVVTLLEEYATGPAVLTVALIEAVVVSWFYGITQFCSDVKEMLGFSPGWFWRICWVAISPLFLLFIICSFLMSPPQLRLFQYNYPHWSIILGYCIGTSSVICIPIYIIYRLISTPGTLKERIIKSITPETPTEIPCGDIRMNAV
Description: as §1
To better understand the margin between doses of Compound 1-(4S) that are effective in the mouse tail suspension models and those that lead to monoamine-related side effects, locomotor activity was examined to assess psychostimulant properties and stereotypy was examined to assess more severe DA-related side effects. Increased body temperature, another effect that has been attributed to DA pharmacology, was also studied. In the mouse, Compound 1-(4S) increased locomotor activity and stereotypy scores at doses of 3.0 mg/kg and 10 mg/kg, respectively. Thus, the margin between the Compound 1-(4S) effective dose in the mouse tail suspension and increased locomotor activity was 10-fold and the margin versus activity in stereotypy was 30-fold. The thermogenic effect of Compound 1-(4S) was studied in mice and rats by measuring changes in rectal temperature following administration of the compound. […] The onset of the thermogenesis was earlier as the dose was increased. […]

[3] = target: T2, DAT (Mus musculus, UniProt Q61327); assay: DAT occupancy in the brain, mouse; format: in vivo
T2 construct: from tissue; host or cells: mouse brain
T2 sequence (Q61327 whole entry): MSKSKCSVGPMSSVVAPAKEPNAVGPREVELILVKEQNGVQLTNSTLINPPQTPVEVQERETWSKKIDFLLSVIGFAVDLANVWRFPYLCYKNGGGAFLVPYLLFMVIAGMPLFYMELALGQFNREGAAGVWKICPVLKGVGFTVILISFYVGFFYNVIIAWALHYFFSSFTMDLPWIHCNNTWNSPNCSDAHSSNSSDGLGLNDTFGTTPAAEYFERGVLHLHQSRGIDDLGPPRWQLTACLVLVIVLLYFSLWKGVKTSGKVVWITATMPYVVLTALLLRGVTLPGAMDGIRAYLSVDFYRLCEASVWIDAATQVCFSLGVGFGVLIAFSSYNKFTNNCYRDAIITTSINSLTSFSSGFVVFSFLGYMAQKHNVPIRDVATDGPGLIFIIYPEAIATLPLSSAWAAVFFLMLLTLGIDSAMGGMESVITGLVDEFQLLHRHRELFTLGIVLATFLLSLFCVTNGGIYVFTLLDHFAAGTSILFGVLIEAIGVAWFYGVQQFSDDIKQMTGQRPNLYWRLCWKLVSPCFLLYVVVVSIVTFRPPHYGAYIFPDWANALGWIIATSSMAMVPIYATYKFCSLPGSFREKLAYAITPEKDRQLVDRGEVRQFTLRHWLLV
Description: as §1
(§2) To better understand the margin between doses of Compound 1-(4S) that are effective in the mouse tail suspension models and those that lead to monoamine-related side effects, locomotor activity was examined to assess psychostimulant properties and stereotypy was examined to assess more severe DA-related side effects. Increased body temperature, another effect that has been attributed to DA pharmacology, was also studied. In the mouse, Compound 1-(4S) increased locomotor activity and stereotypy scores at doses of 3.0 mg/kg and 10 mg/kg, respectively. Thus, the margin between the Compound 1-(4S) effective dose in the mouse tail suspension and increased locomotor activity was 10-fold and the margin versus activity in stereotypy was 30-fold. The thermogenic effect of Compound 1-(4S) was studied in mice and rats by measuring changes in rectal temperature following administration of the compound. […] The onset of the thermogenesis was earlier as the dose was increased. The levels of SERT and NET occupancy were over 80% and appeared saturated across the doses tested. The DAT occupancy was dose-dependent, with 55±5.7% at 1.0 mg/kg, 74±6% at 3.0 mg/kg, and 83±0.8% at 10 mg/kg. […] The onset of the temperature increase was earlier at the highest dose of 10 mg/kg. […] The DAT occupancy was 37±8.3%, 55±5.2%, and 71±1.7% at 1.0, 3.0, and 10 mg/kg, respectively. Consistent with data obtained with mice, the thermogenic effect of Compound 1-(4S) is dose dependently related to DAT occupancy and at least 50% DAT occupancy is needed for this effect.

[4] = test system: locomotor activity; assay: Locomotor activity, mouse; format: in vivo
Source text: as §2, with “Consistent with data obtained with mice, the thermogenic effect of Compound 1-(4S) is dose dependently related to DAT occupancy and at least 50% DAT occupancy is needed for this effect.” left out

[5] = test system: rectal temperature; assay: Thermogenic effect (rectal temperature), rat; format: in vivo
Source text: as §2

[6] = target: T3, NET (Rattus norvegicus, UniProt Q63380); assay: NET occupancy, rat; format: in vivo; conditions: thermogenesis study, all 3 doses (1.0, 3.0, 10 mg/kg)
T3 construct: from tissue; host or cells: rat, in vivo dosing
T3 sequence (Q63380 1-617): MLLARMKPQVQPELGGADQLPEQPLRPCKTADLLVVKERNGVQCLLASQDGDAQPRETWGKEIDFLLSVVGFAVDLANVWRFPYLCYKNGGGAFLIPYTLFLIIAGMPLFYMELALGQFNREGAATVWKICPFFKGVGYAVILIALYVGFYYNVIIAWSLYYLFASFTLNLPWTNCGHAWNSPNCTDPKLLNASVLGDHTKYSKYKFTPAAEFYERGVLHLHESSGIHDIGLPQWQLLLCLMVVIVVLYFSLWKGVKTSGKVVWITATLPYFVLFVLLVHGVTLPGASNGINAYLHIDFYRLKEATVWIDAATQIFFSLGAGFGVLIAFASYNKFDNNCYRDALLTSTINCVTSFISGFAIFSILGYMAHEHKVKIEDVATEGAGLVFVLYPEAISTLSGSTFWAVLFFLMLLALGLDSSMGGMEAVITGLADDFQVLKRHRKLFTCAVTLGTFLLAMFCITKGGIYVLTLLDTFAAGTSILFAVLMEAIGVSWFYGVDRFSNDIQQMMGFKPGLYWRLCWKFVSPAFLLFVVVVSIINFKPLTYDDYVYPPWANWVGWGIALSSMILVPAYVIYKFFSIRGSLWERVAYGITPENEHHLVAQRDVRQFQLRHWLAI
Source text: as §2, with “Consistent with data obtained with mice, the thermogenic effect of Compound 1-(4S) is dose dependently related to DAT occupancy and at least 50% DAT occupancy is needed for this effect.” left out

[7] = Solubility profile (USP definition) in solvents; format: physicochemical
[8] = Distribution coefficient; format: physicochemical
[9] = Stability; format: physicochemical; conditions: with protection from light
[10] = target: NET (Homo sapiens, UniProt P23975); assay: [3H]NE uptake into HEK293/hNET cells; format: cell-based; parameters: expressed in transfected cells; host or cells: HEK293; conditions: read-out: Norepinephrine reuptake IC50 ([3H]NE uptake)
Chain of NET (Homo sapiens, UniProt P23975) (P23975 whole entry): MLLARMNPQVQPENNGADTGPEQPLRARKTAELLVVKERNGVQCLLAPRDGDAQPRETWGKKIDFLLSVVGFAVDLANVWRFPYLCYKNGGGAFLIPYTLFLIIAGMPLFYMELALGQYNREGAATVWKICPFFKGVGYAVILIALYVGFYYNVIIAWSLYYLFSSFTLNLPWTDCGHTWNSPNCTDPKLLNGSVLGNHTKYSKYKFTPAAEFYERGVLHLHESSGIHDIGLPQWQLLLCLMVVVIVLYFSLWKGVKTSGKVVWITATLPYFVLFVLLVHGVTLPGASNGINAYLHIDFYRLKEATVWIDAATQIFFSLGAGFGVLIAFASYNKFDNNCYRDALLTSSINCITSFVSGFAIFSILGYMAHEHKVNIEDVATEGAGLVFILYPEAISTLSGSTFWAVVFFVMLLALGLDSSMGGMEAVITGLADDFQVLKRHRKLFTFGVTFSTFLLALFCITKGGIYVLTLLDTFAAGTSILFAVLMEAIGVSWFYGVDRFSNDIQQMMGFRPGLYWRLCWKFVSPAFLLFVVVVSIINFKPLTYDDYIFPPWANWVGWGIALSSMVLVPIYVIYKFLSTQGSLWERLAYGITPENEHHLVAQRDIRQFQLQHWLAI
Source text: Cell-based assays were used to determine the ability of Compound 1-(4S) to inhibit reuptake of 3H-labeled DA ([3H]DA), NE ([3H]NE), and 5-HT ([3H]5-HT).

[11] = mouse brain, 0.3 mg/kg, tail suspension study
[12] = mouse brain, 1 mg/kg, tail suspension study

Structure (SMILES): CN1Cc2cc(-c3ccc(N)nn3)ccc2[C@H](c2ccc3ccccc3c2)C1 [Compound 1-(4S), 6-[(4S)-1,2,3,4-tetrahydro-2-methyl-4-(2-naphthalenyl)-7-isoquinolinyl]-3-pyridazinamine]
- decrease in immobility relative to vehicle-treated controls ([1]; 0.3 mg/kg): 77%
- decrease in immobility ([1]; 1.0 mg/kg): 91%
- lowest effective dose, tail suspension [1]: 0.3 mg/kg
- receptor occupancy at 0.3 mg/kg [2, 11]: 86 ± 1%
- receptor occupancy at 1 mg/kg [2, 12]: 89 ± 1%
- SERT occupancy ([2]; mouse, thermogenesis study, across doses 1, 3, 10 mg/kg): over 80%
- receptor occupancy at 0.3 mg/kg [3, 11]: 28 ± 3%
- receptor occupancy at 1 mg/kg [3, 12]: 54 ± 3%
- EC50 ([3]; single binding site model, read-out: total plasma concentration producing 50% effect (EC50), DAT occupancy): 1190 nM
- receptor occupancy at 1 mg/kg ([3]; thermogenesis study, 1.0 mg/kg): 55 ± 5.7%
- receptor occupancy at 3 mg/kg ([3]; thermogenesis study, 3.0 mg/kg): 74 ± 6%
- receptor occupancy at 10 mg/kg ([3]; thermogenesis study, 10 mg/kg): 83 ± 0.8%
- dose that increased locomotor activity [4]: 3.0 mg/kg
- margin between effective dose in mouse tail suspension and increased locomotor activity [4]: 10 fold
- significant increase in rectal temperature ([5]; rat, 1.0 mg/kg): not
- change in rectal temperature ([5]; rat, doses of 3.0 and 10 mg/kg): Significant increases
- DAT occupancy needed for the thermogenic effect ([5]; rats, consistent with mice): at least 50%
- NET occupancy [6]: nearly saturated
- Solubility profile (USP definition) ([7]; N,N-dimethylacetamide, dimethylsulfoxide): soluble: N,N-dimethylacetamide, dimethylsulfoxide
- Solubility profile (USP definition) ([7]; PEG 400): sparingly soluble: PEG 400
- Solubility profile (USP definition) ([7]; acetonitrile, ethyl acetate, n-butanol): very slightly soluble: acetonitrile, ethyl acetate,
- Solubility profile (USP definition) ([7]; isopropanol, acetone, ethanol, methanol, propylene glycol, dichloromethane): slightly soluble: isopropanol, acetone, ethanol,
- Solubility profile (USP definition) ([7]; n-heptane): practically insoluble: n-heptane
- Solubility profile (USP definition) ([7]; tetrahydrofuran): freely soluble: tetrahydrofuran
- Distribution coefficient Log Do/b ([8]; pH 6.5): 3.10
- Distribution coefficient Log Do/b ([8]; pH 7.4): 3.82
- Stability [9]: Compound 1-(4S) is stable up to 25 °C with protection
- IC50 [10]: 37.5 ± 2.5 nM
